Data: ChEMBL document CHEMBL3352709, “Synthesis and binding profile of haloperidol-based bivalent ligands targeting dopamine D(2)-like receptors” (Bioorg Med Chem Lett, 2014)

Assays:
[1] = molecular target: T1, D(2) dopamine receptor (Homo sapiens, UniProt P14416); assay: Displacement of [3H]spiperone from human D2long receptor stably expressed in CHO cell membranes by competitive binding assay
[2] = molecular target: T1, D(2) dopamine receptor; assay: Displacement of [3H]spiperone from human D2short receptor stably expressed in CHO cell membranes by competitive binding assay
[3] = molecular target: D(3) dopamine receptor (Homo sapiens, UniProt P35462); assay: Displacement of [3H]spiperone from human D3 receptor stably expressed in CHO cell membranes by competitive binding assay
[4] = molecular target: T2, D(4) dopamine receptor (Homo sapiens, UniProt P21917); assay: Displacement of [3H]spiperone from human D4.4 receptor stably expressed in CHO cell membranes by competitive binding assay
T2 sequence (P21917 whole entry): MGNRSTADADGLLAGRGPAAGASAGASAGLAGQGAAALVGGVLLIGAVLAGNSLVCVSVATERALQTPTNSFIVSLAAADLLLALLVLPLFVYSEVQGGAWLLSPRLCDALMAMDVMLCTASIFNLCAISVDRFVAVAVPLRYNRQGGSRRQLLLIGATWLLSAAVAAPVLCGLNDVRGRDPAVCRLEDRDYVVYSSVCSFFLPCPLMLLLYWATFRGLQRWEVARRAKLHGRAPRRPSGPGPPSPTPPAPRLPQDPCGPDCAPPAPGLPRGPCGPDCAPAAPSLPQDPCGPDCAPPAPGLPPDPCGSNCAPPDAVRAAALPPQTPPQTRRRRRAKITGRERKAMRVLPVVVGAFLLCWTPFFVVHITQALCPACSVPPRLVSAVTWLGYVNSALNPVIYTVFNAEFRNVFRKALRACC

[5] = molecular target: D(1A) dopamine receptor (Sus scrofa, UniProt P50130); assay: Displacement of [3H]SCH23390 from porcine striatal membranes D1 receptor by competitive binding assay
[6] = tested on: CHO; assay: Selectivity ratio of Ki for human D4.4 receptor stably expressed in CHO cell membranes to Ki for human D3 receptor stably expressed in CHO cell membranes; type: cell-based
[7] = tested on: CHO; assay: Selectivity ratio of Ki for human D3 receptor stably expressed in CHO cell membranes to Ki for human D4.4 receptor stably expressed in CHO cell membranes; type: cell-based

Chain of D(3) dopamine receptor (P35462 whole entry): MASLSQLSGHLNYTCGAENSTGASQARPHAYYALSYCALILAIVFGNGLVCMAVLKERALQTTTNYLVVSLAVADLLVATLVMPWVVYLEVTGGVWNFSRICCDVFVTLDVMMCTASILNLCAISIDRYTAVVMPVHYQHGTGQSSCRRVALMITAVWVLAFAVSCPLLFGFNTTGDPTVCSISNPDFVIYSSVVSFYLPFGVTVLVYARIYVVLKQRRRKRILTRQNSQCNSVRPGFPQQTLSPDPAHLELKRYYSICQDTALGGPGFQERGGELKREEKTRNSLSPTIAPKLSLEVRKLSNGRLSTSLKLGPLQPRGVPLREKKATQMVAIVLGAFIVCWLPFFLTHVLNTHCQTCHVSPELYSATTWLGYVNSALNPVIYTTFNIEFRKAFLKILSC
Chain of D(1A) dopamine receptor (P50130 whole entry): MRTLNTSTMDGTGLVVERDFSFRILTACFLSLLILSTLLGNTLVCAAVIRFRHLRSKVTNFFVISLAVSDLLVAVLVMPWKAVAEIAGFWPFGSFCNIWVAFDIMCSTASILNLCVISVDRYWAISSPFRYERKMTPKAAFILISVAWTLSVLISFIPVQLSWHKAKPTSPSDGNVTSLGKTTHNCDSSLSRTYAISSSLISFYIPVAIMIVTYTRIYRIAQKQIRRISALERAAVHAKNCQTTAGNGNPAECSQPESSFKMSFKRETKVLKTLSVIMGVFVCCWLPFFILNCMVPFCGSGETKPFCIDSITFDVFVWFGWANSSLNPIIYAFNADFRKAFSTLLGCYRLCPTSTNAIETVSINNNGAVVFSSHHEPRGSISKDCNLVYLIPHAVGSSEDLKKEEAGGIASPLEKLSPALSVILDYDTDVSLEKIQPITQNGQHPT
T1 sequence (P14416 whole entry): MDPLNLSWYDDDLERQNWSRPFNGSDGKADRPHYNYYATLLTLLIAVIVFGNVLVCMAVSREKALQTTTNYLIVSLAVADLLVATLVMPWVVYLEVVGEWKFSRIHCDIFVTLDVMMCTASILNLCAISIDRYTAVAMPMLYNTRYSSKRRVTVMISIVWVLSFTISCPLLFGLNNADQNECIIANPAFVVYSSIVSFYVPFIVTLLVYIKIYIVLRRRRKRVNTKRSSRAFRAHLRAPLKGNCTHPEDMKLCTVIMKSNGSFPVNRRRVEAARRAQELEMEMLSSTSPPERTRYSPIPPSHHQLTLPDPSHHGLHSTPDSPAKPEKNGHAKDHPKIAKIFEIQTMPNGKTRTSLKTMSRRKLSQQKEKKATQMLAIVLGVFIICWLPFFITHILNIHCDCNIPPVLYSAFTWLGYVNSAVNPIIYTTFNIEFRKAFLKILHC

SMILES	Ki [1] [nM]	Ki [2] [nM]	Ki [3] [nM]	Ki [4] [nM]	Ki [5] [nM]	Ratio Ki [6]	Ratio Ki [7]
O=C(CCC(=O)OC1(c2ccc(Cl)cc2)CCN(CCCC(=O)c2ccc(F)cc2)CC1)OC1(c2ccc(Cl)cc2)CCN(CCCC(=O)c2ccc(F)cc2)CC1	6.7	5.4	14	24	130	2	
CCC(=O)OC1(c2ccc(Cl)cc2)CCN(CCCC(=O)c2ccc(F)cc2)CC1	3.9	1.6	41	2.5	72		8
O=C(CCc1cn(CCOCCOCCOCCOCCn2cc(CCC(=O)OC3(c4ccc(Cl)cc4)CCN(CCCC(=O)c4ccc(F)cc4)CC3)nn2)nn1)OC1(c2ccc(Cl)cc2)CCN(CCCC(=O)c2ccc(F)cc2)CC1	1.6	3.8	19	46	150		
O=C(CCc1cn(CCOCCOCCOCCn2cc(CCC(=O)OC3(c4ccc(Cl)cc4)CCN(CCCC(=O)c4ccc(F)cc4)CC3)nn2)nn1)OC1(c2ccc(Cl)cc2)CCN(CCCC(=O)c2ccc(F)cc2)CC1	1	3	9.8	41	120		
O=C(CCCCCCCCCCCCCCCCCCC(=O)OC1(c2ccc(Cl)cc2)CCN(CCCC(=O)c2ccc(F)cc2)CC1)OC1(c2ccc(Cl)cc2)CCN(CCCC(=O)c2ccc(F)cc2)CC1	25	27	82	160	1400		
O=C(CCCCCCCCCCCCCCCCCCCCC(=O)OC1(c2ccc(Cl)cc2)CCN(CCCC(=O)c2ccc(F)cc2)CC1)OC1(c2ccc(Cl)cc2)CCN(CCCC(=O)c2ccc(F)cc2)CC1	310	280	500	850	1500		
O=C(CCCCCCCCC(=O)OC1(c2ccc(Cl)cc2)CCN(CCCC(=O)c2ccc(F)cc2)CC1)OC1(c2ccc(Cl)cc2)CCN(CCCC(=O)c2ccc(F)cc2)CC1	15	31	39	490	1400		
O=C(CCCCCCCCCCCCC(=O)OC1(c2ccc(Cl)cc2)CCN(CCCC(=O)c2ccc(F)cc2)CC1)OC1(c2ccc(Cl)cc2)CCN(CCCC(=O)c2ccc(F)cc2)CC1	120	62	160	490	1400		
O=C(CCCCCCCCCCC(=O)OC1(c2ccc(Cl)cc2)CCN(CCCC(=O)c2ccc(F)cc2)CC1)OC1(c2ccc(Cl)cc2)CCN(CCCC(=O)c2ccc(F)cc2)CC1	66	46	210	2200	1100		
O=C(CCCCC(=O)OC1(c2ccc(Cl)cc2)CCN(CCCC(=O)c2ccc(F)cc2)CC1)OC1(c2ccc(Cl)cc2)CCN(CCCC(=O)c2ccc(F)cc2)CC1	3	2.3	11	41	220	2	
CC(=O)OC1(c2ccc(Cl)cc2)CCN(CCCC(=O)c2ccc(F)cc2)CC1	4.5	4.5	56	9.3	59		8
CN(C)CCC(=O)OC1(c2ccc(Cl)cc2)CCN(CCCC(=O)c2ccc(F)cc2)CC1	1.9	1.8	30	8.7	200		
O=C(CCCCCCCCCCCCCCC(=O)OC1(c2ccc(Cl)cc2)CCN(CCCC(=O)c2ccc(F)cc2)CC1)OC1(c2ccc(Cl)cc2)CCN(CCCC(=O)c2ccc(F)cc2)CC1	140	280	220	1400	6800		
CN(CCC(=O)OC1(c2ccc(Cl)cc2)CCN(CCCC(=O)c2ccc(F)cc2)CC1)CCN(C)CCC(=O)OC1(c2ccc(Cl)cc2)CCN(CCCC(=O)c2ccc(F)cc2)CC1	3.2	2.2	47	29	260		
O=C(CCc1cn(CCCCCCCCn2cc(CCC(=O)OC3(c4ccc(Cl)cc4)CCN(CCCC(=O)c4ccc(F)cc4)CC3)nn2)nn1)OC1(c2ccc(Cl)cc2)CCN(CCCC(=O)c2ccc(F)cc2)CC1	1.3	1.6	1.8	19	49		
O=C(CCN1CCN(CCC(=O)OC2(c3ccc(Cl)cc3)CCN(CCCC(=O)c3ccc(F)cc3)CC2)CC1)OC1(c2ccc(Cl)cc2)CCN(CCCC(=O)c2ccc(F)cc2)CC1	2.5	1.1	9.5	33	360		
O=C(CCCCCCCCCCCCCCCCC(=O)OC1(c2ccc(Cl)cc2)CCN(CCCC(=O)c2ccc(F)cc2)CC1)OC1(c2ccc(Cl)cc2)CCN(CCCC(=O)c2ccc(F)cc2)CC1	160	150	380	570	930		
O=C(CCC(=O)N1CCC(O)(c2ccc(Cl)cc2)CC1)c1ccc(F)cc1	860	470	1700	18000	19000		
CCCCCCCCCC(=O)OC1(c2ccc(Cl)cc2)CCN(CCCC(=O)c2ccc(F)cc2)CC1 [HALOPERIDOL DECANOATE]	1.8	0.46	3.5	5.8	140		
O=C(CCc1cn(CCCCCCCCCCn2cc(CCC(=O)OC3(c4ccc(Cl)cc4)CCN(CCCC(=O)c4ccc(F)cc4)CC3)nn2)nn1)OC1(c2ccc(Cl)cc2)CCN(CCCC(=O)c2ccc(F)cc2)CC1	4.9	5.4	5.9	89	86		
Cc1ccc(C(=O)OC2(c3ccc(Cl)cc3)CCN(CCCC(=O)c3ccc(F)cc3)CC2)cc1	56	47	270	130	550		
O=C(CCCCCCCC(=O)OC1(c2ccc(Cl)cc2)CCN(CCCC(=O)c2ccc(F)cc2)CC1)OC1(c2ccc(Cl)cc2)CCN(CCCC(=O)c2ccc(F)cc2)CC1	5.6	6.5	9.1	520	1200		
O=C(CCCCCC(=O)OC1(c2ccc(Cl)cc2)CCN(CCCC(=O)c2ccc(F)cc2)CC1)OC1(c2ccc(Cl)cc2)CCN(CCCC(=O)c2ccc(F)cc2)CC1	3.3	2.6	11	360	280		
O=C(CCCC(=O)OC1(c2ccc(Cl)cc2)CCN(CCCC(=O)c2ccc(F)cc2)CC1)OC1(c2ccc(Cl)cc2)CCN(CCCC(=O)c2ccc(F)cc2)CC1	12	12	31	33	220		
O=C(CCCCCCC(=O)OC1(c2ccc(Cl)cc2)CCN(CCCC(=O)c2ccc(F)cc2)CC1)OC1(c2ccc(Cl)cc2)CCN(CCCC(=O)c2ccc(F)cc2)CC1	2.5	2.9	6.4	300	920		
